According to patent US8193246B2, “Lipids and lipid assemblies comprising transfection enhancer elements” (Marina Biotech, Inc., priority 2006, dated 2012):

How the values were obtained:
[1] = test system: HeLa-Cells; assay: In vitro transfection with liposomes encapsulating carboxyfluorescein, fluorescence microscopy (Example 5); format: cell-based; details: 0.5 mM CF/well, FIG. 7-11
Description: HeLa-Cells were obtained from DSMZ (German Collection of Micro Organism and Cell Cultures) and maintained in DMEM. Media were purchased from Gibco-Invitrogen and supplemented with 10% FCS at 37° C. under 5% CO2. The cells were plated at a density of 2×10^4 cells/ml and cultivated in 100 μl medium. After 16 h the media were replaced with Opti-MEM I (Gibco) containing liposomes (L1-L24) with a total amount of 50 to 200 ng Cy3-labelled oligonucleotides or 0.5 mM CF/well. Cell culture dishes were centrifuged for 1 h at 450 g at 37° C., followed by an incubation of 3 h hours at 37° C. under 5% CO2. The transfection mixture was replaced by the above mentioned medium and cells were incubated for further 24-48 h hours. Transfection efficiency and cellular distribution was determined after 4 or 24 hours by light and fluorescence microscopy using objectives with 10× or 40× magnification (Axionvert S 100, Carl Zeiss Inc.).

[2] = test system: HeLa-Cells; assay: In vitro transfection with liposomes encapsulating carboxyfluorescein (Example 11); format: cell-based; details: 0.05 mM CF/well, 4 hours, FIG. 17, 18
Description: HeLa-Cells were obtained from DSMZ (German Collection of Micro Organism and Cell Cultures) and maintained in DMEM. Media were purchased from Gibco-Invitrogen and supplemented with 10% FCS at 37° C. under 5% CO2. The cells were plated at a density of 4×10^4 cells/ml and cultivated in 100 μl medium. After 16 h the media were replaced with Opti-MEM I (Gibco) containing liposomes (L-46-L-49) with a total amount of 0.05 mM CF/well. Cell culture dishes were incubated for 4 hours at 37° C. under 5% CO2. Transfection efficiency and cellular distribution was determined after 4 hours by fluorescence microscopy with an exposure time of 5 seconds and using the 10/100 fold objective (Axionvert S 100, Carl Zeiss Inc.). Before imaging cells were washed several times (5×) with PBS pH7.4 and analysed directly (incubation time 20 to 30 sec.) in 50 μl PBS pH7.4. As control free CF (0.1 mM) in PBS was added to the cells.

carboxyfluorescein [free carboxyfluorescein]
fluorescence signal of carboxyfluorescein in cytosol or nucleus [1]: do not show any fluorescence signals | fluorescence signal of carboxyfluorescein [2]: no fluorescence signal was observed
